Measured values as given in patent publication US8623110B2, “Protein and isolated or purified amino acid product containing compositions and uses thereof” (Archer Daniels Midland Company, priority 2007, dated 2014).

Legend:
Format in all cases: in vivo
[1] = test system: 'Floratam' St. Augustinegrass; experiment: Fertilizer efficacy on St. Augustinegrass (quality, color, clipping weight); conditions: St. Augustinegrass sites 1 and 2; LSG at high rate (Tables 4-7)
Method: (§1) In another embodiment, the fertilizers of the various embodiments described herein were compared to industry standards for efficacy and phytotoxicity on St. Augustinegrass and bermudagrass. In another embodiment the experimental fertilizers were evaluated for their efficacy as a pre-emergent herbicide compared to an industry standard.
Efficacy of the fertilizers on the St. Augustinegrass Site was evaluated by applying treatments 1-8 to 4 replications of ‘Floratam’ St. Augustinegrass. Plot size was 1 m×2 m set up as a randomized complete block. Initially Nature Safe was applied as a granular, while ammonium sulfate and remaining products were applied as split liquid treatments sprayed out using a CO2 boom sprayer set to deliver a volume of 1 gallon/1000 ft^2. After six weeks all 10 treatments were applied to the 4 replications of ‘Floratam’. Products 3-10 were again applied as split liquid treatments using a CO2 boom sprayer. Split treatments were re-applied approximately 2 weeks later. Plots were mowed at 3.0 inches before fertilizer application. Irrigation (0.15 inch) was applied following each application. Clipping samples were taken approximately monthly for dry weight (grams) determination. […] All data was subject to statistical analysis and significant means were determined.

[2] = test system: weeds; experiment: Pre-emergent herbicide efficacy, percent weed cover on bare soil; conditions: compared to the untreated control (Table 13)
Method: Herbicide efficacy of the fertilizers was evaluated with Granular Lysine (LSG), Liquid Lysine (LSL), and Ronstar G by applying them to 3 replications of 1 m×1 m plots which also included an untreated control. Plots were located in an area of known weed infestation problems. Plots were prepared prior to treatment application by rototilling and applying 3 glyphosate applications to clear up pre-existing weeds and the test was initiated with 0 percent weed in all plots. On approximately monthly intervals percent weed cover ratings were taken. All data was subject to statistical analysis and significant means were determined.

[3] = test system: bermudagrass; experiment: Fertilizer efficacy on bermudagrass (quality, color, clipping weight); conditions: LSG at high rate (Tables 8 and 9)
Method: as §1
Efficacy of the fertilizers on the Bermudagrass Site was evaluated by applying, treatments 1-8 to 4 replications of 1 m×2 m bermudagrass plots set up as a randomized complete block. Nature Safe was applied as a granular, while ammonium sulfate and remaining products were applied as split liquid treatments sprayed out using a CO2 boom sprayer set to deliver a volume of 1 gallon/1000 ft^2. Turfgrass ratings were taken to ensure turf quality/color uniformity.
After 6 weeks all 10 treatments were applied to 4 replications of bermudagrass plots. Products 3-10 were again applied as split liquid treatments sprayed out using a CO2 boom sprayer. Split treatments were re-applied approximately 2 weeks later. Plots were mowed at 0.5 inches before fertilizer application. Irrigation (0.15 inch) was applied following application. Clipping samples were taken approximately monthly for dry weight (grams) determination. […] All data was subject to statistical analysis and significant means were determined.

## Cl.NCCCC[C@H](N)C(=O)O [LSG, L-lysine monohydrochloride]
[1]
  turfgrass quality and color (scale of 1-10): highest numerical average on many rating dates
[2]
  weed ratings (percent weed cover): not significantly different
[3]
  turfgrass quality and color (scale of 1-10): best numerical turfgrass scores on most dates
